{"source": "paper PMC11949107", "about": "“Polyunsaturated fatty acids and their endocannabinoid-related metabolites activity at human TRPV1 and TRPA1 ion channels expressed in HEK-293 cells” (PeerJ, 2025)", "key": {"human TRPV1": {"target": "T1, human TRPV1 (Homo sapiens, UniProt Q8NER1)", "T1 construct": "Life Technologies (cells); host or cells: Flp-In T-REx HEK-293", "T1 sequence (Q8NER1 whole entry)": "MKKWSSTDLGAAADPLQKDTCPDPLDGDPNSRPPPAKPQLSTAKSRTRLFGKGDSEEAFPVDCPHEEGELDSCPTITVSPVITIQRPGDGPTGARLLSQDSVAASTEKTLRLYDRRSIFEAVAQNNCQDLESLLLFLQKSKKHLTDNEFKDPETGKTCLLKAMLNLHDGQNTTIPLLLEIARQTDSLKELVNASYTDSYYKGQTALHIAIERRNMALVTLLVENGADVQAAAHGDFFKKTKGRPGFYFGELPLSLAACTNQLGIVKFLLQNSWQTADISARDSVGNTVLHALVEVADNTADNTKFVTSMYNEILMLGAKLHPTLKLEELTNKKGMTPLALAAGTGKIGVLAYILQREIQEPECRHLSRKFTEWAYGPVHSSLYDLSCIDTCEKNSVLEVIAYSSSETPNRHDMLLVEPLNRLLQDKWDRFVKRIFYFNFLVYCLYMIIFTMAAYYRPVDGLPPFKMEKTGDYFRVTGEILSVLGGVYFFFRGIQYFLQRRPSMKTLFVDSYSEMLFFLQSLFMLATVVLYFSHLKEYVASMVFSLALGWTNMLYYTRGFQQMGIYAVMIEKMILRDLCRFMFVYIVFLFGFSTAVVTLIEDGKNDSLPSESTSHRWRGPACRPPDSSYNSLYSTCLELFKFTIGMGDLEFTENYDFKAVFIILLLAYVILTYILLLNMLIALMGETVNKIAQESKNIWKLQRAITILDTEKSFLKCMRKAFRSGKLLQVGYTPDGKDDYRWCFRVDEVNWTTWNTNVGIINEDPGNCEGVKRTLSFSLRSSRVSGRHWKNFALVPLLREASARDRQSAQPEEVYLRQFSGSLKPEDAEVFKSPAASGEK", "assay": "Calcium 5 dye [Ca]i assay in HEK-293 Flp-In T-REx cells expressing TRPV1 (agonist response)", "type": "cell-based", "settings": "for Change in Ca5 fluorescence, individual experiments (CRC raw data): TRPV1 cells", "experimental": "(§1) The cells were incubated in a 5% CO2 humidified atmosphere at 37 °C. Upon reaching approximately 90% confluence in 75 cm^2 flasks, they were trypsinized and transferred to poly-D-lysine coated 96-well plates (Corning, Castle Hill, NSW, Australia) in L-15 medium supplemented with 1% FBS, 100 U penicillin and 100 µg streptomycin ml^−1 (1% P/S), and 15 mM glucose (80 µL volume per well). After an overnight incubation (maximum of 16 h) in humidified room air at 37 °C, TRPV1 and TRPA1 receptor expression was induced 4 h before experimentation by adding to each well 10 µL tetracycline solution to a final concentration of 1 µg ml^−1.\n(§2) Intracellular calcium [Ca]i levels were assessed using the calcium 5 kit from Molecular Devices (# R8186, Sunnyvale, CA, USA) on a FlexStation 3 Microplate Reader (Molecular Devices, Sunnyvale, CA, USA). […] Probenecid (cat # 50027; Biotium) which helps to prevent expulsion of calcium indicator from the cells was added to a final concentration of 1.25 mM. 90 µL of the dye were loaded into each well of the plate and incubated for 1 h before reading in the FlexStation 3 at 37 °C. Fluorescence was recorded every 2 s (λ excitation = 485 nm, λ emission = 525 nm) for 5 min. After 1 min of baseline recording, 20 µL of the drug, dissolved in HBSS with 1% dimethyl sulfoxide (DMSO) (cat # D2650; Sigma-Aldrich, Melbourne, Australia) was added (final DMSO concentration was 0.1% in well).\n(§3) The response to agonists was expressed as a percentage change from the average baseline measurement taken for 60s before adding drug. Changes in fluorescence resulting from the addition of solvent were subtracted before normalization to baseline. Concentration–response curves (CRC), Emax and EC50 values were determined using a three-parameter logistic equation (GraphPad Prism, San Diego, CA, USA). […] Potencies were expressed as pEC50, which is the negative log of EC50 in moles per litre (Molar). Where appropriate, unpaired Student’s t-test were used to compare the responses of individual compounds in different conditions, while a one-way ANOVA followed by Dunnett’s multiple comparisons test was used to assess potential differences in responses elicited by a range of compounds. P < 0.05 was considered statistically significant."}, "human TRPA1": {"target": "T2, human TRPA1 (Homo sapiens, UniProt O75762)", "T2 construct": "Life Technologies (cells); host or cells: Flp-In T-REx HEK-293", "T2 sequence (O75762 whole entry)": "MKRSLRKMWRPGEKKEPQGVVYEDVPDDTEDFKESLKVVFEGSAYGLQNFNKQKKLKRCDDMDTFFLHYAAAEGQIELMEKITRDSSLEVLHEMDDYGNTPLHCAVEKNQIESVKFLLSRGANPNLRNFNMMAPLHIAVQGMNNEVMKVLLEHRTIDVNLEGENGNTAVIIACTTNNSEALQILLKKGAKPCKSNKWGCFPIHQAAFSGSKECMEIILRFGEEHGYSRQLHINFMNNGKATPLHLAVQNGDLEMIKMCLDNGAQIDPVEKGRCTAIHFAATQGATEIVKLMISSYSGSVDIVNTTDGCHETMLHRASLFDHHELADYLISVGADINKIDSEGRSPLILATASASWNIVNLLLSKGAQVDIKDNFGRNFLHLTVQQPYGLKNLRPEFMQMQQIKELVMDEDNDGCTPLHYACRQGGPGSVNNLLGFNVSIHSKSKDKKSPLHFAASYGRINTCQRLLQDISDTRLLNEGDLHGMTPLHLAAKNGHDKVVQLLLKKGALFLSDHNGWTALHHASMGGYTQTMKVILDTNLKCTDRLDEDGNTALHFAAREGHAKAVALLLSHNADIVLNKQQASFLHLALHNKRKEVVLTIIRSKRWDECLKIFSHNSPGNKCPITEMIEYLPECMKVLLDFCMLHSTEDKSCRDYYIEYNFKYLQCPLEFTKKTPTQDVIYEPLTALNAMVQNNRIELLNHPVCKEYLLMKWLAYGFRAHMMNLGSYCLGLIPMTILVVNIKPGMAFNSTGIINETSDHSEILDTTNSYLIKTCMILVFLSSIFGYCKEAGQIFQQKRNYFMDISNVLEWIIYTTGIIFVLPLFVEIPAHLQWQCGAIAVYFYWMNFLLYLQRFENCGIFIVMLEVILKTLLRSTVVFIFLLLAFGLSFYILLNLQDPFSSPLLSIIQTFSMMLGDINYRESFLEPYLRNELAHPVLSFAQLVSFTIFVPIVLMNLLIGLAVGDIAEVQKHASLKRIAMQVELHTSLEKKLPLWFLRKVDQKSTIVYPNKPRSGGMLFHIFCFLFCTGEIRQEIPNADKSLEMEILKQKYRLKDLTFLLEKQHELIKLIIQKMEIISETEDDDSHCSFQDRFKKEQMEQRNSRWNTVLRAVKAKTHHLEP", "assay": "Calcium 5 dye [Ca]i assay in HEK-293 Flp-In T-REx cells expressing TRPA1 (agonist response)", "type": "cell-based", "settings": "for [Ca]i response (change in fluorescence), individual replicates: sheet Figure 3(E)", "experimental": "as §1, §2, §3"}, "HEK-293 EV cells": {"tested_on": "HEK-293 EV cells", "assay": "Calcium 5 dye [Ca]i assay in HEK-293 empty vector (EV) cells", "type": "cell-based, human", "settings": "10 µM; HEK-293 EV cells; percentage of predrug baseline", "experimental": "as §1\nIntracellular calcium [Ca]i levels were assessed using the calcium 5 kit from Molecular Devices (# R8186, Sunnyvale, CA, USA) on a FlexStation 3 Microplate Reader (Molecular Devices, Sunnyvale, CA, USA). […] 90 µL of the dye were loaded into each well of the plate and incubated for 1 h before reading in the FlexStation 3 at 37 °C. […] After 1 min of baseline recording, 20 µL of the drug, dissolved in HBSS with 1% dimethyl sulfoxide (DMSO) (cat # D2650; Sigma-Aldrich, Melbourne, Australia) was added (final DMSO concentration was 0.1% in well).\nas §3"}}, "note": "“And” between values parts separate entries of the source, which are not always exact repeats. Equal values may be shown once.", "data": [{"molecule": "CCCCC/C=C\\C/C=C\\C/C=C\\C/C=C\\CCCCOC(CO)CO", "note": "[2-AG ether, 2-arachidonoylglycerol ether]", "values": [{"measurement": "Elevation of [Ca]i in HEK-293 TRPV1 cells compared with HEK-293 EV cells", "setting": "human TRPV1; 10 µM", "result": "did not produce a notable change"}, {"measurement": "Change of Ca5 fluorescence, Mean ± SEM, TRPV1 (10 µM)", "setting": "human TRPV1; 10 µM, HEK-293 TRPV1 cells, percentage of predrug baseline", "result": "39 ± 24", "unit": "%"}, {"measurement": "TRPV1 response, Mean± SEM (N)", "setting": "human TRPV1; 30 µM, one-way ANOVA comparison with capsaicin 10 µM", "result": "63± 56"}, {"measurement": "Emax ± SEM % TRPV1 (30 µM)", "setting": "human TRPV1; highest tested concentration (30 µM) or derived from concentration-response curves (DHEA, AEA, NADA, capsaicin)", "result": "63 ± 23", "unit": "%"}, {"measurement": "Change in Ca5 fluorescence, individual experiments (CRC raw data)", "setting": "human TRPV1; log concentration -4.52288 (M)", "result": "153.653 and 87.759 and 41.6511 and 12.8054 and 5.8133 and 75.505"}, {"measurement": "Change in Ca5 fluorescence, individual experiments (CRC raw data)", "setting": "human TRPV1; log concentration -5 (M)", "result": "155.318 and 30.8581 and 23.9661 and 3.174 and 0.3103 and 20.3939"}, {"measurement": "Change in Ca5 fluorescence, individual experiments (CRC raw data)", "setting": "human TRPV1; log concentration -5.52288 (M)", "result": "16.5791 and 3.033 and 7.578 and 1.888 and 0.6433 and 11.7313"}, {"measurement": "Change in Ca5 fluorescence, individual experiments (CRC raw data)", "setting": "human TRPV1; log concentration -6 (M)", "result": "7.918 and 3.6522 and 9.605 and 2.557 and 2.906 and 1.314"}, {"measurement": "Change in Ca5 fluorescence, individual experiments (CRC raw data)", "setting": "human TRPV1; log concentration -6.52288 (M)", "result": "3.121 and 1.724 and 12.4457 and 2.326 and 0.7415 and 2.165"}, {"measurement": "Change in Ca5 fluorescence, individual experiments (CRC raw data)", "setting": "human TRPV1; log concentration -7 (M)", "result": "2.256 and 4.13 and 8.499 and 1.026 and 2.717 and 1.813"}, {"measurement": "Elevation of [Ca]i in HEK-293 TRPA1 cells compared with HEK-293 EV cells", "setting": "human TRPA1; 10 µM (cinnamaldehyde 300 µM)", "result": "did not produce a change"}, {"measurement": "Change of Ca5 fluorescence, Mean ± SEM, TRPA1 (10 µM)", "setting": "human TRPA1; 10 µM, HEK-293 TRPA1 cells, percentage of predrug baseline", "result": "91 ± 40", "unit": "%"}, {"measurement": "TRPA1 activation at the highest concentration tested", "setting": "human TRPA1; 30 µM", "result": "activated TRPA1"}, {"measurement": "TRPA1 response compared with the highest concentration of cinnamaldehyde (300 µM)", "setting": "human TRPA1; 30 µM", "result": "significantly smaller"}, {"measurement": "TRPA1 response, Mean± SEM (N)", "setting": "human TRPA1; 30 µM, one-way ANOVA comparison with cinnamaldehyde 300 µM", "result": "223 ± 60"}, {"measurement": "[Ca]i response (change in fluorescence), individual replicates", "setting": "human TRPA1; concentration -4.52288 (log)", "result": "16.8824 and 397.614 and 5.373 and 104.863 and 520.454 and 293.014"}, {"measurement": "[Ca]i response (change in fluorescence), individual replicates", "setting": "human TRPA1; concentration -5 (log)", "result": "6.439 and 205.99 and 4.156 and 6.3216 and 170.328 and 155.005"}, {"measurement": "[Ca]i response (change in fluorescence), individual replicates", "setting": "human TRPA1; concentration -5.52288 (log)", "result": "2.263 and 3.295 and 6.759 and 5.886 and 11.1841 and 49.3437"}, {"measurement": "[Ca]i response (change in fluorescence), individual replicates", "setting": "human TRPA1; concentration -6 (log)", "result": "11.4488 and 1.879 and 1.228 and 4.253 and 4.557 and 3.684"}, {"measurement": "[Ca]i response (change in fluorescence), individual replicates", "setting": "human TRPA1; concentration -6.52288 (log)", "result": "9.48 and 8.5131 and 4.1 and 4.971 and 4.357 and 3.125"}, {"measurement": "[Ca]i response (change in fluorescence), individual replicates", "setting": "human TRPA1; concentration -7 (log)", "result": "0.2809 and 4.873 and 5.959 and 5.37 and 6.745 and 2.857"}, {"measurement": "Emax ± SEM % TRPA1 (30 µM)", "setting": "human TRPA1; highest tested concentration (30 µM) or derived from concentration-response curves (cinnamaldehyde)", "result": "223 ± 87", "unit": "%"}, {"measurement": "Change of Ca5 fluorescence, Mean ± SEM, EV (10 µM)", "setting": "HEK-293 EV cells", "result": "8 ± 2", "unit": "%"}]}]}
